# Measurements as given in patent US11884661B2, “3-substituted propionic acids as αV integrin inhibitors” (BRISTOL-MYERS SQUIBB COMPANY, priority 2016, dated 2024).
# Where a name gives a salt, the structure may show the parent alone.
# Key:
# human αVβ6 = target: T1, human αVβ6 (Homo sapiens, UniProt P06756+P18564); assay: human αVβ6 HTRF binding assay; conditions: recombinant human αVβ6 integrin, FITC-conjugated fibronectin
# T1 construct: purchased R & D systems 3817-AV
# Method in brief: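 Biotinylated recombinant αVβ6 (1.25 nM final) incubated with FITC-fibronectin (5 nM) 1 h at RT, then streptavidin-terbium (0.625 nM) added and incubated overnight at RT in the dark before HTRF read. Buffer: 20 mM Tris pH 7.4, 1 mM MgCl2, 1 mM MnCl2, 0.01% Tween 20, 0.01% BSA.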
# human αVβ3 = human αVβ3 (Homo sapiens, UniProt P05106+P06756); assay: human αVβ3 HTRF binding assay
# Sequence of human αVβ3 (P06756 31-992 limits assumed): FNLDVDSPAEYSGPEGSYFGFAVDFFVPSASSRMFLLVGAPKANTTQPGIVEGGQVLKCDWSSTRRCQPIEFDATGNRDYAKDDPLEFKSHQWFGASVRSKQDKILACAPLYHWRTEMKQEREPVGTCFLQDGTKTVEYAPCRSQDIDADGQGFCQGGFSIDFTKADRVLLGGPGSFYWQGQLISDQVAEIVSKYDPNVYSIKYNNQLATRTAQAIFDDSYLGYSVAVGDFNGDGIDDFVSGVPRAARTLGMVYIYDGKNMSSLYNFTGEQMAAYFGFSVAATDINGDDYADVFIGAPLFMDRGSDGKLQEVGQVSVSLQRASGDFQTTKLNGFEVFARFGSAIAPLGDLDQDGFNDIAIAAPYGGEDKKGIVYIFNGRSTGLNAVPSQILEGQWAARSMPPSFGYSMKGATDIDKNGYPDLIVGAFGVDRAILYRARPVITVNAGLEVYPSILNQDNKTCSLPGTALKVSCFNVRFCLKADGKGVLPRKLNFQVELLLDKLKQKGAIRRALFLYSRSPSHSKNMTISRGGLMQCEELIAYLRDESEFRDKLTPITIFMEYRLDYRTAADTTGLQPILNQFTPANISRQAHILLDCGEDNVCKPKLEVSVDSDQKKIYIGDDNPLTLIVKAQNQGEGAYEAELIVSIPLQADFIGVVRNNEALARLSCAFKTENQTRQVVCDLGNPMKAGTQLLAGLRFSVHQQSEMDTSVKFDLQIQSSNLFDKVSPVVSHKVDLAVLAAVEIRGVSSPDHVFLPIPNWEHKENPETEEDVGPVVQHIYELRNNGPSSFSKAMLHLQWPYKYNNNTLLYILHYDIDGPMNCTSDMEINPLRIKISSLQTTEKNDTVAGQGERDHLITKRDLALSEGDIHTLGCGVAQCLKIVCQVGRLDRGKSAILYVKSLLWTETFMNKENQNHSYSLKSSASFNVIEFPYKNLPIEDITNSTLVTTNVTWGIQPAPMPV
# Sequence of human αVβ3 (P05106 27-718 limits assumed): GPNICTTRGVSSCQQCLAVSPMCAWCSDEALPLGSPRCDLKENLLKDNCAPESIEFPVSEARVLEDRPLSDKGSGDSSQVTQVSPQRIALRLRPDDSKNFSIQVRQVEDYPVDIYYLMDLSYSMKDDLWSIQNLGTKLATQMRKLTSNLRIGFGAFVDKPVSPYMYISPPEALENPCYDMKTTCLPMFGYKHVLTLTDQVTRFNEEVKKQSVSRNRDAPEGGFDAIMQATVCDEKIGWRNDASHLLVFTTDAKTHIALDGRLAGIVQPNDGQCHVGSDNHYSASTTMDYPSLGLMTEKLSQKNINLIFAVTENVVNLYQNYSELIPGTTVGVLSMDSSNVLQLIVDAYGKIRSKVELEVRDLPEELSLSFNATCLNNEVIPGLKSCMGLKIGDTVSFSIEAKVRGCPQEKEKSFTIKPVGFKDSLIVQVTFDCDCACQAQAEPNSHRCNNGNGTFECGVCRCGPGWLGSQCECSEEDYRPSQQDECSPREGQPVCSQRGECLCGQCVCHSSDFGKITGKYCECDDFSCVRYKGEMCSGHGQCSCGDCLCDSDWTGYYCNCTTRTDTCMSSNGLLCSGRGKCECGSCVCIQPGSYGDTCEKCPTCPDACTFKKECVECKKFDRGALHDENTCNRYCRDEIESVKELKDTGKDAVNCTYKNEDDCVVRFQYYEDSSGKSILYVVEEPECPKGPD
# Protocol: (§1) All binding assays used the HTRF (homogeneous time resolved fluorescence) technology from Cisbio International, therefore all assays are described as HTRF binding assays. The assay results for the Examples are listed above together with the characterization data. The HTRF binding assays are established for the following integrins: human αVβ6, human αVβ1, human αVβ3, human αVβ5, and human αVβ8. All assays used the following assay buffer: 20 mM Tris, pH 7.4, 1 mM MgCl2, 1 mM MnCl2, 0.01% Tween 20, and 0.01% BSA. Alternatively, a SPA-based assay was used for evaluation of receptor binding.
# (§2) The following describes the components and a representative procedure for the human αVβ6 HTRF binding assay: Recombinant human αVβ6 Integrin (R & D systems, 3817-AV) was biotinylated. Biotinylated human αVβ6 Integrin was added to assay vessel at a final concentration of 1.25 nM. FITC-conjugated fibronectin (Cytoskeleton, FNR02) was then added at the final concentration of 5 nM. The mixture was centrifuged at 600 rpm for three minutes using Thermo Fisher Heraeus Multifuge X3 centrifuge and then incubated at RT for an hour. Streptavidin Terbium (Cisbio international 610STLB) was then added at the final concentration of 0.625 nM. The resulting mixture was centrifuged at 600 rpm for three minutes using Thermo Fisher Heraeus Multifuge X3 centrifuge and then incubated at room temperature overnight in dark before reading HTRF signals.
# human αVβ5 = human αVβ5 (Homo sapiens, UniProt P06756+P18084); assay: human αVβ5 HTRF binding assay
# Sequence of human αVβ5 (P06756 31-992 limits assumed): as the sequence (P06756 31-992 limits assumed) above
# Sequence of human αVβ5 (P18084 24-719 limits assumed): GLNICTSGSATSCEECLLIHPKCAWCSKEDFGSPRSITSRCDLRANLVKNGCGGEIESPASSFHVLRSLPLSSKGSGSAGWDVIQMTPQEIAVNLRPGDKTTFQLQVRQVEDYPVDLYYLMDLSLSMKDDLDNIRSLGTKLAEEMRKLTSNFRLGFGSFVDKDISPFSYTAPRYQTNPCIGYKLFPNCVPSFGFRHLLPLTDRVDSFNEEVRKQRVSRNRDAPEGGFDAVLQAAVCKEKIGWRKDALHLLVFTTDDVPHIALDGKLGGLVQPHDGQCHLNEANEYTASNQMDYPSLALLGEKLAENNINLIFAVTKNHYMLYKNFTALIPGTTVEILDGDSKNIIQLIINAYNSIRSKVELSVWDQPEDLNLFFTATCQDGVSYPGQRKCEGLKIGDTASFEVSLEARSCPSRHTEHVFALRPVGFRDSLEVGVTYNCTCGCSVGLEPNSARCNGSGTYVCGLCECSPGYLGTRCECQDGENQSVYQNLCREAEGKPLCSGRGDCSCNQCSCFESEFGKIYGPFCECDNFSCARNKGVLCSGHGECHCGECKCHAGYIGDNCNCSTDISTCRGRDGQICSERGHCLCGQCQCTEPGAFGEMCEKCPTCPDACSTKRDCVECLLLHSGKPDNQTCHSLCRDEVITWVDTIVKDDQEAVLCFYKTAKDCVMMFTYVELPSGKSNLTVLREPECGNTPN
# Protocol: as §1, with “binding. […]” for “binding.”
# human αVβ8 = human αVβ8 (Homo sapiens, UniProt P06756+P26012); assay: human αVβ8 HTRF binding assay
# Sequence of human αVβ8 (P06756 31-992 limits assumed): as the sequence (P06756 31-992 limits assumed) above
# Sequence of human αVβ8 (P26012 43-684 limits assumed): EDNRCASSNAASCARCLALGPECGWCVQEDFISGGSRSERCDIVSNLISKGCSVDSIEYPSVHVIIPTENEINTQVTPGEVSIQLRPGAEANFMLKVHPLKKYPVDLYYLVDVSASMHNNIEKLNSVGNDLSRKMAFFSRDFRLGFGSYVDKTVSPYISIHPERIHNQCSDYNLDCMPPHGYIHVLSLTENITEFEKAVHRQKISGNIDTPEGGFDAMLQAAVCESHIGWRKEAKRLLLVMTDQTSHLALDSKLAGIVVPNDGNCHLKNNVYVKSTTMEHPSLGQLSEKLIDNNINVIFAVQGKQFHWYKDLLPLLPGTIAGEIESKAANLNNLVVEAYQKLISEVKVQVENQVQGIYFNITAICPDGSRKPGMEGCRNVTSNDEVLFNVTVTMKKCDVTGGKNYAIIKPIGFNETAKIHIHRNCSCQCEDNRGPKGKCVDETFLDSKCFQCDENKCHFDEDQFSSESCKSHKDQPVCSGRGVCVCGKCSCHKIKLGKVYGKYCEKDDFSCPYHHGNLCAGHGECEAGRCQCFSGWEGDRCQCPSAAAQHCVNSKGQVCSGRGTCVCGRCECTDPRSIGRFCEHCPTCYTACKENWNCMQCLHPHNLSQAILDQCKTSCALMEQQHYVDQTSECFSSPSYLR
# Protocol: as §1, with “binding. […]” for “binding.”
# human αVβ1 = human αVβ1 (Homo sapiens, UniProt P05556+P06756); assay: human αVβ1 HTRF binding assay
# Sequence of human αVβ1 (P06756 31-992 limits assumed): as the sequence (P06756 31-992 limits assumed) above
# Sequence of human αVβ1 (P05556 21-728 limits assumed): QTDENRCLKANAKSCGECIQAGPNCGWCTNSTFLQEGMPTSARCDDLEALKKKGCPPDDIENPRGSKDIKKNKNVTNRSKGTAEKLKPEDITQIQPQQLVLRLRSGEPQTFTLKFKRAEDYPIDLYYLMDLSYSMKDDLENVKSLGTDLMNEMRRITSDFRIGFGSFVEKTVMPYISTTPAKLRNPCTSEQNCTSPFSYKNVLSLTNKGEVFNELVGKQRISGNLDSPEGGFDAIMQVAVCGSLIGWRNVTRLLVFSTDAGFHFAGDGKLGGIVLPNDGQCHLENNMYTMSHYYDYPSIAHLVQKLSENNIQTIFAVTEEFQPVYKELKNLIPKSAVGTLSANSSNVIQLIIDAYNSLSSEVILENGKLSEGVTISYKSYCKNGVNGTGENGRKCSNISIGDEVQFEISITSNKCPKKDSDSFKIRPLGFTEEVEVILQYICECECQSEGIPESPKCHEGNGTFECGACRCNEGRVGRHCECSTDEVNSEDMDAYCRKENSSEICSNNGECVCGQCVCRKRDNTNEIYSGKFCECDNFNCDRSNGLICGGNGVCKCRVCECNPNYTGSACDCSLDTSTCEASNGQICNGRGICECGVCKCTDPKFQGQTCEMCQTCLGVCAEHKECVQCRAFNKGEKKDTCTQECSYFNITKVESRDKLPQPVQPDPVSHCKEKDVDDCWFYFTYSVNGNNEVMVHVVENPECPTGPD
# Protocol: as §1, §2
# T1 sequence (P06756 31-992 limits assumed): as the sequence (P06756 31-992 limits assumed) above
# T1 sequence (P18564 22-707 limits assumed): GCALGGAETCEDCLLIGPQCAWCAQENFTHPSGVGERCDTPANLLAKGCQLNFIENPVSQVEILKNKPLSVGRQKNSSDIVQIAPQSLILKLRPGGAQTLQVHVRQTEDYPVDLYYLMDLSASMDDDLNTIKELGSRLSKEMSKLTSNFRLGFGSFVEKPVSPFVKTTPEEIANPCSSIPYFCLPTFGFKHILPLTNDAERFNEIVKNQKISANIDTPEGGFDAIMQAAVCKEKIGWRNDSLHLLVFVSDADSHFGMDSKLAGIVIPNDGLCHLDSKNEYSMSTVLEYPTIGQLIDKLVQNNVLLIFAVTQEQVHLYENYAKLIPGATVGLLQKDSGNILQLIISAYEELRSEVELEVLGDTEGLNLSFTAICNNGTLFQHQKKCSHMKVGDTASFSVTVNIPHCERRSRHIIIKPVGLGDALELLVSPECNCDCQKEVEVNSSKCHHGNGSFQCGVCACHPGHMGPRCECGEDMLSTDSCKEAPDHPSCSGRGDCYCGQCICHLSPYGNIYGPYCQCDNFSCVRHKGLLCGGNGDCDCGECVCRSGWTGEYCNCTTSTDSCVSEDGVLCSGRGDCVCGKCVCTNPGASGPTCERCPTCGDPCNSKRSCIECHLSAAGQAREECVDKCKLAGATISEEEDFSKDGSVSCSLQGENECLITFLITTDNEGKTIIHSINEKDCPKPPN
IC50 (human αVβ6) [nM],IC50 (human αVβ3) [nM],IC50 (human αVβ5) [nM],IC50 (human αVβ8) [nM],IC50 (human αVβ1) [nM],Structure (SMILES)
6,2.4,1.5,262,,"COc1ccc(C(CC(=O)O)n2ccc(CCCCc3ccc4c(n3)NCCC4)n2)cn1 (racemic) [Example 1, (±)-3-(6-Methoxypyridin-3-yl)-3-(3-(4-(5,6,7,8-tetrahydro-1,8-naphthyridin-2-yl)butyl)-1H-pyrazol-1-yl)propanoic acid]"
6.8,2.7,0.34,420,,"COc1ccc(C(CC(=O)O)n2ccc(CCCc3ccc4c(n3)NCCC4)n2)cn1 (racemic) [Example 2, (±)-3-(6-Methoxypyridin-3-yl)-3-(3-(3-(5,6,7,8-tetrahydro-1,8-naphthyridin-2-yl)propyl)-1H-pyrazol-1-yl)propanoic acid]"
9.4,2.3,0.76,1800,144,"CCOc1ncc(C(CC(=O)O)n2ccc(CCCc3ccc4c(n3)NCCC4)n2)cn1 (racemic) [Example 27, (±)-3-(2-Ethoxypyrimidin-5-yl)-3-(3-(3-(5,6,7,8-tetrahydro-1,8-naphthyridin-2-yl)propyl)-1H-pyrazol-1-yl)propanoic acid]"
11.2,1.7,6.5,2900,286,"O=C(O)CC(c1cnc2ccccc2c1)n1ccc(CCCc2ccc3c(n2)NCCC3)n1 (racemic) [Example 29, (±)-3-(Quinolin-3-yl)-3-(3-(3-(5,6,7,8-tetrahydro-1,8-naphthyridin-2-yl)propyl)-1H-pyrazol-1-yl)propanoic acid]"
5.7,11,230,2010,100,"O=C(O)CC(c1ccc2c(c1)CCO2)n1ccc(CCCc2ccc3c(n2)NCCC3)n1 (racemic) [Example 30, (±)-3-(2,3-Dihydrobenzofuran-5-yl)-3-(3-(3-(5,6,7,8-tetrahydro-1,8-naphthyridin-2-yl)propyl)-1H-pyrazol-1-yl)propanoic acid]"
5.2,7.5,,3300,63,"Cc1cc(C)n(-c2cccc(C(CC(=O)O)n3ccc(CCCc4ccc5c(n4)NCCC5)n3)c2)n1 (racemic) [Example 31, (±)-3-(3-(3,5-Dimethyl-1H-pyrazol-1-yl)phenyl)-3-(3-(3-(5,6,7,8-tetrahydro-1,8-naphthyridin-2-yl)propyl)-1H-pyrazol-1-yl)propanoic acid]"
4.3,5.5,,2700,43,"O=C(O)CC(c1cccc(N2CCOCC2)c1)n1ccc(CCCc2ccc3c(n2)NCCC3)n1 (racemic) [Example 32, (±)-3-(3-Morpholinophenyl)-3-(3-(3-(5,6,7,8-tetrahydro-1,8-naphthyridin-2-yl)propyl)-1H-pyrazol-1-yl)propanoic acid]"
28,14,11,8200,,"COc1ccc(C(CC(=O)O)n2ccc(-c3cccc(-c4ccc5c(n4)NCCC5)c3)n2)cn1 (racemic) [Example 46, (±)-3-(6-Methoxypyridin-3-yl)-3-(3-(3-(5,6,7,8-tetrahydro-1,8-naphthyridin-2-yl)phenyl)-1H-pyrazol-1-yl)propanoic acid]"
29,7.5,2.7,,,"COc1ccc(C(CC(=O)O)n2ccc(OCCCc3ccc4c(n3)NCCC4)n2)cn1 (racemic) [Example 48, (±)-3-(6-Methoxypyridin-3-yl)-3-(3-(3-(5,6,7,8-tetrahydro-1,8-naphthyridin-2-yl)propoxy)-1H-pyrazol-1-yl)propanoic acid]"
3.2,3.2,11,1120,65,"COc1ccc(C(CC(=O)O)n2ccc(CCCc3ccc4c(n3)NCCC4)n2)cn1 (single isomer, unassigned) [Example 3, 3-(6-Methoxypyridin-3-yl)-3-(3-(3-(5,6,7,8-tetrahydro-1,8-naphthyridin-2-yl)propyl)-1H-pyrazol-1-yl)propanoic acid]"
0.7,1.4,,330,55,"COc1ccc(C(CC(=O)O)c2nc(CCCc3ccc4c(n3)NCCC4)cs2)cn1 (single isomer, unassigned) [Example 15, 3-(6-Methoxypyridin-3-yl)-3-(4-(3-(5,6,7,8-tetrahydro-1,8-naphthyridin-2-yl)propyl)thiazol-2-yl)propanoic acid]"
2.1,2.3,,860,66,"COc1ccc(C(CC(=O)O)c2nc(CCCc3ccc4c(n3)NCCC4)cs2)cc1F (single isomer, unassigned) [Example 38, 3-(3-Fluoro-4-methoxyphenyl)-3-(4-(3-(5,6,7,8-tetrahydro-1,8-naphthyridin-2-yl)propyl)thiazol-2-yl)propanoic acid]"
17,28,10,2600,,"COc1ccc(C(CC(=O)O)c2ncc(CCCCc3ccc4c(n3)NCCC4)s2)cc1F (single isomer, unassigned) [Example 40]"
13,8,0.87,770,,"COc1cncc(C(CC(=O)O)n2nccc2CCCc2ccc3c(n2)NCCC3)c1 (single isomer, unassigned) [Example 63, 3-(5-methoxypyridin-3-yl)-3-(5-(3-(5,6,7,8-tetrahydro-1,8-naphthyridin-2-yl)propyl)-1H-pyrazol-1-yl)propanoic acid]"
19,3.8,,110,,"COc1cncc(C(CC(=O)O)n2ccc(CCCc3ccc4c(n3)NCCC4)n2)c1 (single isomer, unassigned) [Example 64, 3-(5-methoxypyridin-3-yl)-3-(3-(3-(5,6,7,8-tetrahydro-1,8-naphthyridin-2-yl)propyl)-1H-pyrazol-1-yl)propanoic acid]"
410,4.3,1.1,,,"COc1cncc(C(CC(=O)O)n2ccc(CCCc3ccc4c(n3)NCCC4)n2)c1 (single isomer, unassigned) [Example 65, 3-(5-methoxypyridin-3-yl)-3-(3-(3-(5,6,7,8-tetrahydro-1,8-naphthyridin-2-yl)propyl)-1H-pyrazol-1-yl)propanoic acid]"
1.6,1.6,,3020,,"Cn1cc([C@H](CC(=O)O)n2ccc(CCCc3ccc4c(n3)NCCC4)n2)ccc1=O [Example 45, (S)-3-(1-Methyl-6-oxo-1,6-dihydropyridin-3-yl)-3-(3-(3-(5,6,7,8-tetrahydro-1,8-naphthyridin-2-yl)propyl)-1H-pyrazol-1-yl)propanoic acid ditrifluoroacetic acid salt]"
11,1120,270,,,"CCOC(=O)C[C@@H](c1ccc(OC)nc1)n1ccc(CCCc2ccc3c(n2)NCCC3)n1 [Example 47, Ethyl (S)-3-(6-methoxypyridin-3-yl)-3-(3-(3-(5,6,7,8-tetrahydro-1,8-naphthyridin-2-yl)propyl)-1H-pyrazol-1-yl)propanoate]"
18,7.3,0.99,,,"Cc1ncc([C@H](CC(=O)O)n2ccc(CCCc3ccc4c(n3)NCCC4)n2)cn1 [Example 54, (S)-3-(2-Methylpyrimidin-5-yl)-3-(3-(3-(5,6,7,8-tetrahydro-1,8-naphthyridin-2-yl)propyl)-1H-pyrazol-1-yl)propanoic acid]"
